Broadly, the IC50 is the concentration that inhibits the measured activity by half. What is called inhibition in vivo is how much of the control response was suppressed. Higher therefore signals strong suppression.

IC50, inhibition and inhibition in vivo data for 12 compounds are collected here from ChEMBL document CHEMBL1136507, “Imidazopyrimidines, potent inhibitors of p38 MAP kinase” (Bioorg Med Chem Lett, 2003).

Calls of active or inactive are those of the source. The calls are words filed in the database; no cut-off is given here.

Assay [1] has as its target Mitogen-activated protein kinase 14 (Mus musculus, UniProt P47811). The assay is described as follows: Inhibition of murine p38 alpha kinase.
The test system of assay [2] is Mus musculus. The assay is described as follows: Percentage inhibition against LPS-induced TNF-alpha production in mice at a 10 mg/kg dose; Not active. Type of assay: functional, organism-based. More on the design: dose 10 mg/kg.
Assay [3] relates to Mus musculus. The assay can be described thus: Percentage inhibition against LPS-induced TNF-alpha production in mice at a 10 mg/kg dose. Type of assay: functional.
Assay [4] concerns the target MAP kinase p38 (Homo sapiens, UniProt O15264+Q15759+Q16539+P53778). The assay is described as follows: Inhibition of LPS-induced p38-related TNF-alpha production in human peripheral blood mononuclear cells. It counts as functional.
Assay [5] deals with Mus musculus. The assay can be described thus: Percentage inhibition against LPS-induced TNF-alpha production in mice at a 2 mg/kg dose. It counts as functional.

Mitogen-activated protein kinase 14, sequence (P47811 whole entry): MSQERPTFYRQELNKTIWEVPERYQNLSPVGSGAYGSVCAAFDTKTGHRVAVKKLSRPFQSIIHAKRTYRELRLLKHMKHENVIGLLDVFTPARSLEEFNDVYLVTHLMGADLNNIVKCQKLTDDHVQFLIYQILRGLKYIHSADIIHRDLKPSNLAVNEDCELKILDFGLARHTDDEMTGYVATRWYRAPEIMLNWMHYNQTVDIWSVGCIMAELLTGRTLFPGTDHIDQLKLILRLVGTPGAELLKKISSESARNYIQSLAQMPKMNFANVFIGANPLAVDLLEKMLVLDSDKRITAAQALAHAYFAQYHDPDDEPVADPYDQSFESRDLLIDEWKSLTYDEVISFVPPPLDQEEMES

Turning to `Nc1ccn2c(-c3ccnc(N[C@H]4CCCc5ccccc54)c3)c(-c3ccccc3)nc2n1`, the IC50 in assay [1] is 0.008 µM. The inhibition entry in assay [2] was “inactive”.
On to `COc1cc(N)[nH]c2nc(-c3ccc(F)cc3)c(-c3ccncc3)c1-2`, for which, in assay [3], the inhibition in vivo at 10 mg/kg worked out at 75%.
Take `C[C@@H](Nc1nccc(-c2c(-c3ccccc3)nc3nc(N)ccn23)n1)c1ccccc1`: in assay [1], 0.037 µM corresponded to half-maximal inhibition (IC50). In assay [3], the inhibition in vivo at 10 mg/kg worked out at 66%.
Regarding `Nc1ccn2c(-c3ccnc(NCc4ccccc4)c3)c(-c3ccc(F)cc3)nc2n1`, the IC50 in assay [1] and in assay [4] was 0.006 µM throughout. In addition, testing at 10 mg/kg in assay [3] gave an inhibition in vivo of 42%.
`Nc1ccn2c(-c3ccncc3)c(-c3ccc(F)cc3)nc2n1`: the IC50 in assay [1] was determined as 0.57 µM. Besides, the inhibition in vivo at 10 mg/kg in assay [3] came out at 97%.
In assay [1], `Fc1ccc(-c2[nH]c3ccc4[nH]c(Cc5ccccc5)nc4c3c2-c2ccncc2)cc1` showed an IC50 of 0.022 µM. Besides, in assay [3], at 10 mg/kg the inhibition in vivo was 70%.
In the case of `CSc1nccc(-c2c(-c3ccccc3)nc3nc(N)ccn23)n1`, the IC50 turned out to be 0.457 µM in assay [1] and 0.028 µM in assay [4]. The inhibition in vivo at 10 mg/kg in assay [3] stood at 23%.
Consider `C[C@H](Nc1cc(-c2c(-c3ccccc3)nc3nc(N)ccn23)ccn1)c1ccccc1`, for which the results for the IC50 in assay [1] and in assay [4] were 0.001 µM and 0.002 µM, respectively. In assay [3], this compound displayed an inhibition in vivo at 10 mg/kg of 96%. The same compound gave an inhibition in vivo at 2 mg/kg in assay [5] of 34%.
As to `C[C@H](Nc1nccc(-c2c(-c3ccccc3)nc3nc(N)ccn23)n1)c1ccccc1`, in assay [1], 0.008 µM corresponded to half-maximal inhibition (IC50). Moreover, testing at 10 mg/kg in assay [3] gave an inhibition in vivo of 100%. The compound further came in with an inhibition in vivo at 2 mg/kg in assay [5] of 83%.
As for `COc1nccc(-c2c(-c3ccccc3)nc3nc(N)ccn23)n1`, the IC50 was found to be 0.21 µM in assay [1] and 0.09 µM in assay [4]. Further, the inhibition in vivo at 10 mg/kg in assay [3] is 87%.
In assay [1], `COC[C@H](C)Nc1cc(-c2c(-c3ccccc3)nc3nc(N)ccn23)ccn1` registered an IC50 of 0.002 µM. Besides, 10 mg/kg produced 93% inhibition in vivo in assay [3].
`Nc1ccn2c(-c3ccncn3)c(-c3ccccc3)nc2n1`: the IC50 is 0.99 µM in assay [1] and 0.304 µM in assay [4]. For the same compound, in assay [3], the inhibition in vivo at 10 mg/kg came out at 73%.
